The values that follow come from patent US4835185A, “Immunomodulator for improving commercial performance of domestic animals” (Iowa State University Research Foundation, Inc., priority 1987, dated 1989).

Data set [1] deals with cholesterol in lean tissue and plasma. Description: Lamb trials: cholesterol in lean tissue and plasma. The format is in vivo, lambs (sheep). The text has this: (§1) The lambs used in Trial 1 consisted of medium-frame crossbred wethers and ewes weighing 26 to 31 kg. The lambs used in Trial 2 consisted of medium-framced crossbred rams weighing 18 to 25 kg. Each animal was raised as a single. The lambs were housed in a temperature controlled room in individual pens with nipple waterers. When received, the lamps were vaccinated for enterotoxemia. They were allowed to adjust to the pens and the environment for 10 days. One day before the trial began, the lambs were sheared and placed on their respective dietary treatments. The lamps were allotted blocking by weight and sex into two dietary treatment groups. Growth and feed consumption were measured bi-weekly. All lamb weights were taken after a 12 to 16 hour fast. The animals were slaughtered at 50 kg in the Iowa State University Meat laboratory facilities at Ames, Iowa. At slaughter, the lamb's internal organs and wool were weighed and sampled, loin eye area and back fat measured, and carcasses separated into fat, lean, and bone.
The SMB (soybean meal-containing) and the CGM (corn-gluten-containing) diets (compositions given in Table A) were fed twice per day in quantities ensuring that feed was before the lambs at all times. The diets were calculated to be equivalent to each other with respect to metabolizable protein, ether extract, fiber, and minerals with the exception of calcium and phosphorus. […] The CGM diet was calculated to contain slightly more energy (TDN 81.7 vs. 79.0, NEm 1.88 v. 1.86, Neg. 1.23 vs. 1.22). […] The soybean meal ingredient contained about 3.5 wt % leucine, while the corn gluten meal ingredient contained about 15 wt % leucine. The CGM diet was therefore higher in leucine than the SBM diet, containing an estimated 16 wt % leucine as compared with an estimated 8 wt % leucine based on total crude protein in the diet.
^(8) Amount of cholesterol in lean tissue (ng/mg) and plasma (ng/ml).
^(1)- (8) See Table B, except cholesterol data is for lean tissue

For the next data set, the system named is T lymphocytes. As to the kind of experiment: Lamb Trial 2: lymphocyte blastogenesis (3H-thymidine, phytohemaglutinin). Particulars: 1% KIC, * p<.05. The format is cell-based, lambs (sheep).
Source text: as §1
^(9) Lymphocyte blastogenesis measured by amount of ^3
H--thymidine incorporated per 2 hrs. of incubation in the presence of
phytohemaglutinin (a mitogen that stimulates Tlymphocyte division).

The nature of data set [2]: Rumen degradation of KIC (nylon bag technique). More on the design: species or system ruminants (rumen). The text has this:
(§2) KIC pellets were made by mixing zein, ethanol, KIC, limestone, bentonite, and water in a ratio of […]. This mixture was extruded through a die of 15 mm directly into a vat of liquid nitrogen. The shattered pellets were spread out and allowed to air-dry for 2 days. The pellets were coated with zein (2% w/w) by spraying with a 30% zein solution made in 80% ethanol. The pellets again were air-dryed. Control pellets were made similarly to the KIC pellets except that the mixture was zein, limestone, ethanol, bentonite, and water in a ratio of 12:12:7.5:2.7:1. When KIC pellets were placed in the rumen (nylon bag technique), […] of the KIC added was present in the bags after 24 hr of rumen fermentation. It was estimated that uncoated KIC was 95% degraded in the rumen.
Therefore, an attempt was made to protect KIC from ruminal degradation. KIC pellets, resistant to rumen degradation, were made by mixing zein, ethanol, KIC, limestone, bentonite and water in a ratio of 8.3:7.4:5.2:3:2:1. This mixture was extruded through a die of 15 mm directly into a vat of liquid nitrogen. The shattered pellets were spread out and allowed to air-dry for two days. The dried pellets were coated with zein (2% w/w) by spraying with a 30% zein solution made in 80% ethanol. The pellets again were air-dried. Control pellets were made similar to the KIC pellets except that the mixture was zein, limestone, ethanol, bentonite and water in a ratio of 12:12:7.5:2.7:1. When KIC pellets were placed in the rumen (nylon bag technique), 45% of the KIC added was present in the bags after 36 hr of rumen digestion.

The test system of the next data set is white blood cells. As to the kind of experiment: White blood cell number and differential, cattle (experiment 3). The format is in vivo, castrated male cattle. Here is the method: In experiment 3 72 castrated male cattle were allotted to 12 pens of 6 animals each. Three pens were assigned to each treatment: 0.0% KIC, 0.02% KIC, 0.07% KIC, and 0.20% KIC. Animals were fed ad libitum the respective diets for 6 weeks. At the end of the 6-233k periods, 100-ml blood samples were collected from each animal, and lymphocyte and neutrophil function were evaluated.
The basal cattle diet (experiment 3) consisted of 49% corn, 24% corn-cobs, 18% soybean meal, 7% molasses, 1.3% limestone, 0.25% dicalcium phosphate, 0.23% salt, 0.02% trace-mineral premix, and 0.11% vitamin premix. The basal diet was supplemented with w/w 0.05% control pellets, 0.04% KIC pellets, or 0.4% KIC pellets. All animals consumed ~10 kg of feed per day, resulting in ~0, 2, 7, or 20 g of Ca-KIC consumed per animal per day or 0, 0.02, 0.07, and 0.2% KIC of the total diet.
as §2
Blood was collected by jugular venapuncture into acid-citrate-dextrose anticoagulant. Lymphocytes and neutrophils were isolated, and lymphocyte blastogenesis and neutrophil function evaluated. KIC was obtained from SOBAC, Paris, France. Zein was purchased from Freeman Industries, Tuckahoe, NY. Each experiment was statistically analyzed by analysis of variance. In sheep experiments, individual animals were the experimental units, whereas pen means were analyzed in the cattle experiment.
^2 Total white blood cell number (WBC) is the cells per mm^3.

Read-outs that look alike come from different tables or passages of the source.

Take `CC(C)CC(=O)C(=O)O` [KIC, alpha-ketoisocaproate]: the “CHOLESTEROL PLASMA: amount of cholesterol in plasma” value is 32 ng/mL in data set [1] (Trial 1, CGM diet, 1% KIC (0%: 33)) and 23 ng/mL in data set [1] (Trial 1, SBM diet, 1% KIC (0%: 32)). Further, the “CHOLESTEROL TISSUE: amount of cholesterol in lean tissue” value is on record as 32 ng/mg in data set [1] (Trial 1, CGM diet, 1% KIC (0%: 40)) and 44 ng/mg in data set [1] (Trial 1, SBM diet, 1% KIC (0%: 80)). Also, the “CHOLESTEROL: lean tissue” value in data set [1] (Trial 2, CGM diet, 1% KIC (0%: 92.2), * p<.05) was 81.2 ng/mg; in data set [1] (Trial 2, SBM diet, 1% KIC (0%: 75.2)), 83.2 ng/mg. Moreover, the “LYMPHOCYTE BLASTOGENESIS: amount of 3H-thymidine incorporated per 2 hrs. of incubation” value in the data set with T lymphocytes (Trial 2, CGM diet, phytohemaglutinin (0%: 6134)) was determined as 18102; in the data set on T lymphocytes (Trial 2, SBM diet, phytohemaglutinin (0%: 5993)) it was 14625. The degraded in data set [2] ("as much as", unprotected, read-out: KIC that may be lost by rumen destruction) was 90 to 95%; in data set [2] (estimated, Example IV, read-out: uncoated KIC degraded in the rumen) it was 95%; in data set [2] (preliminary experiments, Example VI, read-out: uncoated KIC degraded in the rumen), 95%. Besides, the “% SEG” value in the data set with white blood cells (Exp. 3, oral coated 0.02% KIC (control 28)) is recorded as 29% of Total WBC; in the data set on white blood cells (Exp. 3, oral coated 0.07% KIC (control 28)), 24% of Total WBC; with white blood cells (Exp. 3, oral coated 0.20% KIC (control 28)) it was 24% of Total WBC. Also, the “% LYM” value was 63% of Total WBC with white blood cells (Exp. 3, oral coated 0.02% KIC (control 52)); 69% of Total WBC in the data set on white blood cells (Exp. 3, oral coated 0.07% KIC (control 52)); 52% of Total WBC with white blood cells (Exp. 3, oral coated 0.20% KIC (control 52)). The “% EOS” value with white blood cells (Exp. 3, oral coated 0.02% KIC (control .7)) is listed as “.9% of Total WBC”; with white blood cells (Exp. 3, oral coated 0.07% KIC (control .7)) it was “.7% of Total WBC”; in the data set with white blood cells (Exp. 3, oral coated 0.20% KIC (control .7)) it was 1.1% of Total WBC.
